Data published in article PMC9344462 (Journal of Medicinal Chemistry, 2022).
Like-named read-outs stand apart in the source and are kept apart here.

Legend:
Mtb H37Rv [1] = conditions: previous results ref 8; cited from earlier work
[2] = target: PknG (kinase and rubredoxin domains) (Mycobacterium tuberculosis, UniProt P9WI73); experiment: Intrinsic tryptophan fluorescence quenching; assay type: binding
Mtb H37Rv [3] = assay type: cell-based, Mycobacterium tuberculosis H37Rv
[4] = system: THP-1-derived macrophages

PknG (kinase and rubredoxin domains), sequence (P9WI73 74-405): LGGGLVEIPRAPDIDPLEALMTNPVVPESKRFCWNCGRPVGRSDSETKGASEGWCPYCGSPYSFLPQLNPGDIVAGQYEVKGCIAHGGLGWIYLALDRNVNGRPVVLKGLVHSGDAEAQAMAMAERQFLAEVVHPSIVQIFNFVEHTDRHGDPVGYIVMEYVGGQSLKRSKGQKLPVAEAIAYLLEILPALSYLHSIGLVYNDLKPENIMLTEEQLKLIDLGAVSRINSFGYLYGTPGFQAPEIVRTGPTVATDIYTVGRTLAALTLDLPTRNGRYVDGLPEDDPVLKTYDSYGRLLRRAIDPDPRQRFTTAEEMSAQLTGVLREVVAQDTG

NC(=O)c1c(NC(=O)C2CC2)sc2c1CCCC2 [AX20017]
inhibitory activity on intracellular survival of Mtb within macrophage cells (Mtb H37Rv [1]): very similar inhibitory activity

NC(=O)c1c(N)c(C(=O)c2cccs2)n2ccccc12 [B3]
Kd [2]: 3.6 µM

NC(=O)c1c(N)c(C(=O)c2ccc(Cl)c(Cl)c2)n2ccccc12 [B4]
Kd [2]: 13 µM

CC(C)c1ccc(C(=O)c2c(N)c(C(N)=O)c3ccccn23)cc1 [T1]
Mtb H37Rv intracellular survival (Mtb H37Rv [3]; 1 and 10 μM, 24 h and 48 h, […]): significant decrease | effect on cell viability ([4]; 10 μM, 3, 24 and 48 h): none of the compounds showed adverse effects

NC(=O)c1c(N)c(C(=O)c2ccc(F)cc2)n2ccccc12 [B1]
Mtb H37Rv intracellular survival (Mtb H37Rv [3]): significant decrease | effect on cell viability [4]: none of the compounds showed adverse effects
